Tested on: PEO1 cells
Test: In vitro [^18F]11 uptake in PEO1 cells
Format: cell-based, human
Conditions: 50 μg/mL CDDP, 60 min uptake
Excerpt: The human ovarian carcinoma cell lines PEO1/4 were established and characterised as described in Wolf C. R. et al.^22 and Langdon S. P. et al^23. Briefly, PEO1/4 cells were derived from the malignant ascites of a patient with a recurrent mucinous ovarian adenocarcinoma, before (PEO1) and after (PEO4) the onset of a clinical resistance to cisplatin chemotherapy in this patient. The radiation-induced murine fibrosarcoma (RIF-1) tumour cell line was originally characterised by Twentyman P. R. et al.^20. The LNM35 tumour cells are a highly lymphogenous metastatic subline of the human large pulmonary carcinoma NCI-H460 cell line, as described in Kozaki K. et al.^24. […]
Cells were plated in triplicate in 12-well plates 2 or 3 days prior to the experiments and treated with the antineoplastic platinum-derived drug Cisplatin, 5-FU, the protein synthesis inhibitor cycloheximide (CHX) or the topoisomerase inhibitor etoposide (VP-16) (Sigma, UK) or corresponding vehicle at the indicated concentration and time. […] 260 μL of each sample were transferred in counting tubes and Fluorine-18 radioactivity was immediately determined using a Packard Cobra II gamma counter (Perkin Elmer, UK). […] BCA Protein assay (Pierce, UK) was performed for all samples and datas are normalized and expressed as CCPMA or RLU (Relative Light Unit)/mg of protein.

## O=C1C(=O)N(Cc2cn(CC[18F])nn2)c2ccc(S(=O)(=O)N3CCC[C@H]3COc3ccc(F)cc3F)cc21 [[^18F]11, (S)-1-((1-(2-Fluoroethyl)-1H-[1,2,3]-triazol-4-yl)methyl)-5-(2(2,4-difluorophenoxymethyl)-pyrrolidine-1-sulfonyl)isatin]
  [^18F]11 uptake in drug-treated cells compared to control: significantly increased

Reference: US8961930B2, “Isatin derivatives for use as in vivo imaging agents” (Imperial Innovations Limited, priority 2008, dated 2015)
